Assay [1] concerns the target T1, human Adenosine A3 receptor (Homo sapiens, UniProt P0DMS8).
T1 sequence (P0DMS8 1-318): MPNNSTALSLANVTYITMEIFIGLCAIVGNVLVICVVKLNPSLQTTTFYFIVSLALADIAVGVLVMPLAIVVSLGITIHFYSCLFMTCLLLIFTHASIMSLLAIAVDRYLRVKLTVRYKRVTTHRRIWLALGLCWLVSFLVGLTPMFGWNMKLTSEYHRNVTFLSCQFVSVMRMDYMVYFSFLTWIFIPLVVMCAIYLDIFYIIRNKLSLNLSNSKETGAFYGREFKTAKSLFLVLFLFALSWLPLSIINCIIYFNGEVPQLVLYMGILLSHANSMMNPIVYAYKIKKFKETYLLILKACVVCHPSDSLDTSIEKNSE
In words: Adenosine receptor TR-FRET binding assay (CA200645 displacement), A3. Background: TR-FRET usually uses a lanthanide donor and a delayed reading to cut background.

Assay [2] has as its target T2, human Adenosine A2a receptor (Homo sapiens, UniProt P29274).
T2 construct: expressed in transfected cells; host or cells: CHO cell membranes
As to the kind of experiment: Adenosine receptor TR-FRET binding assay (CA200645 displacement), A2a. The settings on record: 100 nM CA200645, CHO cell membranes, 2 hours at room temperature.

In assay [3] the target is T3, human Adenosine A1 receptor (Homo sapiens, UniProt P30542).
T3 sequence (P30542 1-326): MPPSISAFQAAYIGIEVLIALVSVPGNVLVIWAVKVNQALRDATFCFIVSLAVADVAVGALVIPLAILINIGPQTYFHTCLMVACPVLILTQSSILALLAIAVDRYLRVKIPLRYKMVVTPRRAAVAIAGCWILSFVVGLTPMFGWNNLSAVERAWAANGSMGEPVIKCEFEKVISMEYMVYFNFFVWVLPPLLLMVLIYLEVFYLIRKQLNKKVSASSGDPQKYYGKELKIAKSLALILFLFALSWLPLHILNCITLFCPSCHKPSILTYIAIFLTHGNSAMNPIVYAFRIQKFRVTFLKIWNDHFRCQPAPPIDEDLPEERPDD
As to the kind of experiment: Adenosine receptor TR-FRET binding assay (CA200645 displacement), A1.
Procedure: All FRET binding experiments were conducted at room temperature in white 384-well plates, in assay binding buffer containing 1×LabMed (Cisbio, France), 100 μg/mL saponin, 1% DMSO and 0.02% pluronic acid. Binding of the fluorescently labelled Adenosine receptor antagonist XAC (CA200645, FRET acceptor) to terbium-labelled A1, A2a, A2b and A3 adenosine receptors (FRET donors) was detected by time-resolved FRET due to the close proximity of the donor and acceptor in a binding event. To investigate the ability of unlabelled test compounds to bind to Adenosine A1, A2a, A2b and A3 receptors, dose response curves were constructed that determined the ability of a range of concentrations to inhibit the binding of 30 nM CA200645 to the A2b receptor and 100 nM CA200645 to the A1, A2a, and A3 receptor.
Serial dilution (1:3 dilutions) of test compounds in neat DMSO and transfer of a 400 nL sample of test compound into the assay plate was carried out using the Mosquito (TTP Labtech, UK). The compound samples were incubated for 2 hours at room temperature with a fixed concentration of CA200645 defined for each receptor (see above) and CHO cell membranes containing the human Adenosine A1 (0.5 μg/well), A2a (0.3 μg/well), A2b (1 μg/well) or A3 (1 μg/well) receptor in 40 μL of assay buffer. Total and non-specific binding of CA200645 was determined in the absence and presence of 10 μM XAC, respectively. Following 2 hours incubation, the level of CA200645 binding was detected on a Pherastar FSX (BMG Labtech, Germany) using standard TR-FRET settings. The terbium donor was excited with three laser flashes at a wavelength of 337 nm, and donor and acceptor emission was detected at 620 nm and 665 nm wavelengths, respectively. FRET ratios were obtained by multiplying the acceptor/donor ratio value by 10,000. Specific binding was determined by subtracting the non-specific binding FRET ratio from the total binding FRET ratio. Compound IC50 curves were analysed using GraphPad Prism 7.0 (GraphPad, USA) and Ki affinity values were determined from the obtained IC50 values using the method of Cheng and Prusoff.

This is an account of results in patent US20230203041A1, “ANTAGONISTS OF THE ADENOSINE A2A RECEPTOR” (AdoRx Therapeutics Limited, priority 2020, published 2023).

Broadly, the Ki is the dissociation constant of the complex between target and ligand, obtained from inhibition or displacement. Read a low Ki as a stronger hold on the target.

Where a name gives a salt, the structure may show the parent alone. Where only a bound is given, the exact number is not on record here.

T2 sequence (P29274 whole entry): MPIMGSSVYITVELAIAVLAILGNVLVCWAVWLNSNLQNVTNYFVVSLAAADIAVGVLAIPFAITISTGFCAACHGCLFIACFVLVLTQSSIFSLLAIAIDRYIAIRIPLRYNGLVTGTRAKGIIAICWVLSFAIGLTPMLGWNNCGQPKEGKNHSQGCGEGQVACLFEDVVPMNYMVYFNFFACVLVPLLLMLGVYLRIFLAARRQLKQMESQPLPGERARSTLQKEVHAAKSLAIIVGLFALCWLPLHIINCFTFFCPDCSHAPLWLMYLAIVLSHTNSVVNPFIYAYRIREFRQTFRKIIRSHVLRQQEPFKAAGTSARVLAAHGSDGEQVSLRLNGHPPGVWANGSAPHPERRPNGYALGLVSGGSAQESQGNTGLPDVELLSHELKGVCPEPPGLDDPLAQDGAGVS

Turning to `CC(C)(O)CNC(=O)c1ccn2nc(-c3cccc(C#N)c3)c(-c3ccncn3)c2n1` [Example 13, 2-(3-Cyanophenyl)-N-(2-hydroxy-2-methyl-propyl)-3-pyrimidin-4-yl-pyrazolo[1,5-a]pyrimidine-5-carboxamide], the figures for the Ki in assay [1] and in assay [2] were greater than 1000 nM and 67.1 nM, respectively.
In the same order, the values of `CC(C)(O)CNC(=O)c1ccn2nc(-c3cccc(C#N)c3)c(C#N)c2n1` [Example 14, 3-Cyano-2-(3-cyanophenyl)-N-(2-hydroxy-2-methyl-propyl)pyrazolo[1,5-a]pyrimidine-5-carboxamide] are greater than 1000 nM and 218 nM.
With `CC(C)(C)OC(=O)N1CCC[C@@H]1CNc1ccn2nc(-c3ccco3)c(C#N)c2n1` [Example 37.2, tert-butyl (2R)-2-[[[3-cyano-2-(2-furyl)pyrazolo[1,5-a]pyrimidin-5-yl]amino]methyl]pyrrolidine-1-carboxylate], the Ki in assay [1] was determined as 1930 nM; in assay [2] it was 19.2 nM; in assay [3], 103 nM.
On to `N#Cc1c(-c2ccco2)nn2ccc(N3CCN(CCF)CC3)nc12` [Example 37.3], for which the Ki in assay [1] was greater than 1000 nM; in assay [2] it was 22.6 nM; in assay [3] it was 262 nM.
Take `N#Cc1c(-c2ccco2)nn2ccc(N3CCN(CCc4ccccc4)CC3)nc12` [Example 37.6]: the Ki in assay [1] was greater than 1000 nM; in assay [2], 45.4 nM; in assay [3], 363 nM.
In the same order, the values of `N#Cc1c(-c2ccco2)nn2ccc(N3CCN(Cc4ccccn4)CC3)nc12` [Example 37.7] are 7850 nM, 49.3 nM and 154 nM.
On the same counts, the results for `CN1CCN(c2ccn3nc(-c4ccco4)c(C#N)c3n2)CC1` [Example 37.8] are greater than 1000 nM, 62.4 nM and 426 nM.
In the same order, the values of `C[C@H]1CN(c2ccn3nc(-c4ccco4)c(C#N)c3n2)CCN1C(=O)OC(C)(C)C` [Example 37.11] are 2720 nM, 171 nM and 2170 nM.
Turning to `NC(=O)c1c(-c2ccco2)nn2ccc(N3CCN(CCF)CC3)nc12` [Example 39, 5-[4-(2-Fluoroethyl)piperazin-1-yl]-2-(2-furyl)pyrazolo[1,5-a]pyrimidine-3-carboxamide], the results for the Ki in assay [1], in assay [2] and in assay [3] were greater than 1000 nM, 38.9 nM and 2580 nM, respectively.
On the same counts, the results for `CN(C)C1CN(c2ccn3nc(-c4ccco4)c(C(N)=O)c3n2)C1` [Example 39.1, 5-[3-(Dimethylamino)azetidin-1-yl]-2-(2-furyl)pyrazolo[1,5-a]pyrimidine-3-carboxamide] are greater than 1000 nM, 127 nM and 1340 nM.
In the same order, the values of `Nc1ccn2nc(-c3ccco3)c(Br)c2n1` [Example 50, 3-Bromo-2-(2-furyl)pyrazolo[1,5-a]pyrimidin-5-amine] are 3070 nM, 151 nM and 459 nM.
In the same order, the values of `Cn1ccnc1CN1CCN(c2ccn3nc(-c4ccco4)c(C#N)c3n2)CC1` [Example 51.2, 2-(2-Furyl)-5-[4-[(1-methylimidazol-2-yl)methyl]piperazin-1-yl]pyrazolo [1,5-a]pyrimidine-3-carbonitrile] are greater than 1000 nM, 54.9 nM and 104 nM.
Regarding `N#Cc1c(-c2ccco2)nn2ccc(N3CCN(CCO)CC3)nc12` [Example 52, 2-(2-Furyl)-5-[4-(2-hydroxyethyl)piperazin-1-yl]pyrazolo[1,5-a]pyrimidine-3-carbonitrile], the Ki in assay [1] is greater than 1000 nM; in assay [2] it was 114 nM; in assay [3] it was 1150 nM.
As to `COC(=O)/C=C/c1c(-c2ccco2)nn2ccc(NCc3ccccc3)nc12` [Example 54, Methyl (E)-3-[5-(benzylamino)-2-(2-furyl)pyrazolo[1,5-a]pyrimidin-3-yl]prop-2-enoate], the Ki in assay [1] came to 68 nM; in assay [2], 34.7 nM; in assay [3], 18 nM.
As for `O=C(O)/C=C/c1c(-c2ccco2)nn2ccc(NCc3ccccc3)nc12` [Example 54.1, (E)-3-[5-(Benzylamino)-2-(2-furyl)pyrazolo[1,5-a]pyrimidin-3-yl]prop-2-enoic acid], the results for the Ki in assay [1], in assay [2] and in assay [3] were 6180 nM, 102 nM and 856 nM, respectively.
Take `Cc1cccnc1CN1CCN(c2ccn3nc(-c4cccc(C#N)c4)c(C#N)c3n2)CC1` [Example 59, 2-(3-Cyanophenyl)-5-[4-[(3-methyl-2-pyridyl)methyl]piperazin-1-yl]pyrazolo[1,5-a]pyrimidine-3-carbonitrile]: the Ki in assay [1] came out at 3680 nM; in assay [2], 17.5 nM; in assay [3], 1030 nM.
In the same order, the values of `N#Cc1c(-c2cccc(F)c2)nn2ccc(N3CCN(CCF)CC3)nc12` [Example 61, 5-[4-(2-Fluoroethyl)piperazin-1-yl]-2-(3-fluorophenyl)pyrazolo[1,5-a]pyrimidine-3-carbonitrile] are 4920 nM, 37.9 nM and 42 nM.
As for `N#Cc1c(-c2cnco2)nn2ccc(N3CCN(CCF)CC3)nc12` [Example 62, 5-[4-(2-Fluoroethyl)piperazin-1-yl]-2-oxazol-5-yl-pyrazolo[1,5-a]pyrimidine-3-carbonitrile], the values for the Ki in assay [1] and in assay [2] were greater than 1000 nM and 365 nM, respectively.
`N#Cc1c(-c2ccc(F)cc2)nn2ccc(NCc3ccccc3)nc12` [Example 63, 5-(Benzylamino)-2-(4-fluorophenyl)pyrazolo[1,5-a]pyrimidine-3-carbonitrile]: the Ki in assay [1] worked out at 65 nM; in assay [2], 49.1 nM; in assay [3] it was 24 nM.
On the same counts, the results for `Cc1cccnc1CN1CCN(c2ccn3nc(-c4cnco4)c(C#N)c3n2)CC1` [Example 65, 5-[4-[(3-Methyl-2-pyridyl)methyl]piperazin-1-yl]-2-oxazol-5-yl-pyrazolo[1,5-a]pyrimidine-3-carbonitrile] are greater than 1000 nM, 407 nM and 2480 nM.
Consider `Fc1cccc(-c2cc3nc(NCCN4Cc5ccccc5C4)ccn3n2)c1` [Example 66.4, 2-(3-Fluorophenyl)-N-(2-isoindolin-2-ylethyl)pyrazolo[1,5-a]pyrimidin-5-amine], for which the Ki in assay [1] was determined as 2900 nM; in assay [2], 706 nM; in assay [3], 803 nM.
`Fc1cccc(-c2nn3ccc(Cl)nc3c2Br)c1` [Example 68, 3-Bromo-5-chloro-2-(3-fluorophenyl)pyrazolo[1,5-a]pyrimidine]: the inhibition constant (Ki) is greater than 1000 nM in assay [1] and 572 nM in assay [2].
As to `Ic1c(-c2ccco2)nn2ccc(NCc3ccccc3)nc12` [Example 77, N-Benzyl-2-(2-furyl)-3-iodo-pyrazolo[1,5-a]pyrimidin-5-amine], the Ki turned out to be 135 nM in assay [1], 46.4 nM in assay [2] and 1430 nM in assay [3].
As for `CN1CCC[C@@H]1CNc1ccn2nc(-c3ccco3)c(C#N)c2n1` [Example 81, 2-(2-Furyl)-5-[[(2R)-1-methylpyrrolidin-2-yl]methylamino]pyrazolo[1,5-a]pyrimidine-3-carbonitrile], the Ki in assay [1] is greater than 1000 nM; in assay [2], 202 nM; in assay [3], 1260 nM.
Regarding `C[C@@H]1CN(c2ccn3nc(-c4ccco4)c(C#N)c3n2)CCN1` [Example 82, 2-(2-Furyl)-5-[(3R)-3-methylpiperazin-1-yl]pyrazolo[1,5-a]pyrimidine-3-carbonitrile hydrochloride], the results for the Ki in assay [1], in assay [2] and in assay [3] were greater than 1000 nM, 665 nM and 4330 nM, respectively.
Take `CC(C)(C)OC(=O)N1CCC(c2ccn3nc(-c4ccco4)c(C#N)c3n2)CC1` [Example 83, Tert-butyl 4-[3-cyano-2-(2-furyl)pyrazolo[1,5-a]pyrimidin-5-yl]piperidine-1-carboxylate]: the Ki in assay [1] was greater than 1000 nM; in assay [2], 694 nM.
With `c1ccc(CNc2ncn3nc(-c4ccco4)cc3n2)cc1` [Example 84, N-Benzyl-7-(2-furyl)pyrazolo[1,5-a][1,3,5]triazin-2-amine], the Ki was determined as 231 nM in assay [1], 160 nM in assay [2] and 389 nM in assay [3].
On the same counts, the results for `O=C(NCc1ccccc1)c1ccn2nc(-c3ccco3)cc2n1` [Example 85, N-Benzyl-2-(2-furyl)pyrazolo[1,5-a]pyrimidine-5-carboxamide] are greater than 1000 nM, 493 nM and 366 nM.
On the same counts, the results for `N#Cc1cccc(-c2nn3ccc(NCCN4CCN(c5ccccc5)CC4)nc3c2C#N)c1` [Example 87.1, 2-(3-Cyanophenyl)-5-[2-(4-phenylpiperazin-1-yl)ethylamino]pyrazolo [1,5-a]pyrimidine-3-carbonitrile] are greater than 1000 nM, 16.3 nM and 213 nM.
